A short description of series [1]: Physical form stability / conversion to Form 1. Format: physicochemical. The method, then: The suspension was heated with a heat gun to dissolve most of the solids, and then left to slowly cool to room temperature. The resultant crystals were filtered and analysed by DSC, TGA, and XRPD.
Amorphous gepotidacin mesylate can be generated via lyophilization. Form 1 (150 mg) was dissolved MeCN/water (80/20 v/v; 1 mL). A clarifying filtration was performed and the filtrate was added to a 20 mL vial. The solution was frozen under liquid nitrogen and lyophilized for 4 hours.

Series [2] in a line: Moisture sorption/desorption isotherms (DVS). The settings on record: first sorption cycle.
Description: The moisture sorption/desorption isotherms of gepotidacin mesylate dihydrate and gepotidacin HCl were obtained over a range of 5-90% relative humidity.

Turning to `CS(=O)(=O)O.O.O.O=c1ccc2ncc(=O)n3c2n1C[C@H]3CN1CCC(NCc2cc3c(cn2)OCCC3)CC1` [Gepotidacin mesylate anhydrate (Form 2)], the physical form stability entry in series [1] (ambient conditions) is on record as “convert to Gepotidacin mesylate dihydrate (Form 1) after one hour”; in series [1] (ambient conditions, listed as Gepotidacin Mesylate Anhydrate (Form 2)) it was “unstable under ambient conditions”. In series [2], the “critical RH step” value amounted to 60 % RH. The uptake of water in series [2] (critical step at 60% RH, indicates conversion to Form 1) turned out to be 4.8%.
Regarding `CS(=O)(=O)O.O.O.O=c1ccc2ncc(=O)n3c2n1C[C@H]3CN1CCC(NCc2cc3c(cn2)OCCC3)CC1` [Amorphous gepotidacin mesylate], the physical form stability result is listed as “started to convert to Form 1 unless stored in a sealed vial with desiccant” in series [1] (amorphous by lyophilization from MeCN/water (80/20 v/v)) and “physically stable for at least three days” in series [1] (amorphous by lyophilization of an aq. t-BuOH solution, ambient conditions).

Source of the values: US12528809B2, “Crystalline forms of gepotidacin” (GLAXOSMITHKLINE INTELLECTUAL PROPERTY DEVELOPMENT LIMITED, priority 2020, dated 2026).
